One compound from patent publication US20230404863A1, “MICRONEEDLE PATCH AND PREPARATION METHOD THEREFOR” (SUZHOU REVEDA MEDICAL BIOTECH CO., LTD., priority 2020, published 2023) can be followed below.

The nature of the series: Stability of astaxanthin in patch vs aqueous solution (UV spectrophotometer, color). It is filed as physicochemical. The following applies: room temperature. From the text:
Astaxanthin and resveratrol are easily oxidized and are very unstable in water and in emulsions. Due to immiscibility of resveratrol with water, it was first hydrophilically modified, and its stability in patches and that in solutions was compared. The patches were made of astaxanthin and the hydrophilically modified resveratrol, and the solutions were aqueous solutions of astaxanthin and the hydrophilically modified resveratrol at the same concentrations.

On to `CC1=C(/C=C/C(C)=C/C=C/C(C)=C/C=C/C=C(C)/C=C/C=C(C)/C=C/C2=C(C)C(=O)[C@@H](O)CC2(C)C)C(C)(C)C[C@H](O)C1=O` [astaxanthin], for which the “Content of astaxanthin after 6 days vs the beginning” value (in aqueous solution at the same concentration, without avoiding exposure to light) is “significantly lower than that at the beginning”. In addition, the “Color of astaxanthin after 6 days” value (in aqueous solution) is listed as “became much lighter”.
